In US12053506B2, “Romo1-derived antimicrobial peptides and variants thereof” (priority 2019, dated 2024):
Read-outs that look alike come from different tables or passages of the source. No end group written: not given here.

What was measured:
[1] = tested on: mouse red blood cells; assay type: cell-based
Method: Red blood cells were diluted with PBS, centrifuged 3 times at 900 g for 10 minutes, and washed. 100 μl of the diluted red blood cell solution (10% v/v PBS) was dispensed into each well of a 96-well microplate, and KU-5878, KU-5878-K4, KU-5878-K4-D, melittin, magainin 2 or daptomycin was added to each well which was then filled with PBS to 200 μl, followed by reaction by incubation at 37° C. for 1 hour. Then, the supernatant of the reaction solution was separated, and the absorbance at a wavelength of 550 nm was measured using a spectrophotometer. As control, PBS and 0.1% Triton X-100 (Triton X-100) solution were used.
Based on the results of measurement of the absorbance, the degree of red blood cell destruction was calculated according to Equation 1 below, and the results of the calculation are shown in FIG. 6. The % intact RBC=100(%)−[(absorbance of peptide-treated red blood cell solution−absorbance of PBS-treated red blood cell solution)/(absorbance of Triton X-100-treated red blood cell solution−absorbance of PBS-treated red blood cell solution)×100(%)] [Equation 1]

[2] = tested on: Multidrug-resistant K. pneumoniae; conditions: Multidrug-resistant
Method: (§1) The minimum bactericidal concentration assay was the same as the method used in Example 1.
(§2) Specifically, each type of bacteria was cultured in 3% (w/v) TSB (Tryptic Soy Broth) liquid medium at 37° C. and 200 rpm for 4 hours, and then further cultured under the same conditions for 3 hours to a concentration of 5×10^6 CFU/ml. Strain solutions were prepared by diluting each of the […] of 2×10^5 CFU/ml.
(§3) Then, the KU-5878 peptide at varying concentrations (0 μg/ml to 300 μg/ml) was dispensed into each well of a 96-well microplate, and 100 μl (1×10^5 CFU/ml) of each of the prepared strain solutions was added thereto, mixed therewith, and allowed to react with the peptide in an incubator at 37° C. for 1 hour.
(§4) In addition, 10 μl of each reaction solution of the peptide and the strain was plated on the TS agar plate at a constant size, and incubated in an incubator at 37° C. for 18 hours, and then colony formation on the plate was checked.
(§5) Meanwhile, the multidrug-resistant Pseudomonas aeruginosa, multidrug-resistant Acinetobacter and multidrug-resistant Klebsiella in Table 2 below were bacteria isolated from patients at Korea University Anam Hospital. […] Then, these bacteria were used in the experiment.

[3] = tested on: Multidrug-resistant A. baumannii; conditions: Multidrug-resistant
Method: as §1, §2, §3, §4, §5

[4] = tested on: Enterobacter aerogenes (ATCC 13048); experiment: Minimum bactericidal concentration (MBC) assay; assay type: cell-based
Method: as §1, §2, §3
as §4, with “checked. The minimum bactericidal concentration was defined as the minimum concentration of the peptide at which no colony was formed, and the experimental results are shown in Table 2 below.” for “checked.”

[5] = tested on: Klebsiella pneumoniae (ATCC 13883); experiment: Minimum bactericidal concentration (MBC) assay; assay type: cell-based
Method: as §1, §2, §3
as §4, with “checked. The minimum bactericidal concentration was defined as the minimum concentration of the peptide at which no colony was formed, and the experimental results are shown in Table 2 below.” for “checked.”

[6] = tested on: Escherichia coli (ATCC 25922); experiment: Minimum bactericidal concentration (MBC) assay; assay type: cell-based
Method: as §1, §2, §3
as §4, with “checked. The minimum bactericidal concentration was defined as the minimum concentration of the peptide at which no colony was formed, and the experimental results are shown in Table 2 below.” for “checked.”

[7] = tested on: Enterococcus faecium (ATCC 19434); experiment: Minimum bactericidal concentration (MBC) assay; assay type: cell-based
Method: as §1, §2, §3
as §4, with “checked. The minimum bactericidal concentration was defined as the minimum concentration of the peptide at which no colony was formed, and the experimental results are shown in Table 2 below.” for “checked.”

[8] = tested on: Bacillus subtilis (ATCC 6633); experiment: Minimum bactericidal concentration (MBC) assay; assay type: cell-based
Method: as §1, §2, §3
as §4, with “checked. The minimum bactericidal concentration was defined as the minimum concentration of the peptide at which no colony was formed, and the experimental results are shown in Table 2 below.” for “checked.”

[9] = tested on: Enterococcus faecalis (ATCC 19433); experiment: Minimum bactericidal concentration (MBC) assay; assay type: cell-based
Method: as §1, §2, §3
as §4, with “checked. The minimum bactericidal concentration was defined as the minimum concentration of the peptide at which no colony was formed, and the experimental results are shown in Table 2 below.” for “checked.”

[10] = tested on: methicillin-resistant Staphylococcus aureus (ATCC 33591); conditions: for MBC MRSA: Tables 11-15, no unit printed
[11] = Toxicity in vivo after intravenous injection; parameters: species or system mouse (C57BL/6); conditions: 100 mg/kg intravenous
Method: At this time, the maximum volume of the injection dose was 150 μl.

[12] = tested on: Staphylococcus aureus, Pseudomonas aeruginosa, methicillin-resistant Staphylococcus aureus and multidrug-resistant Pseudomonas aeruginosa; experiment: Bacteria remaining in the blood of intravenously infected mice; assay type: in vivo, mice (C57BL/6); conditions: 10 mg/kg intravenous 1 hour after infection; blood collected 40 minutes after injection; compared with LL-37, magainin 2, daptomycin
Method: Specifically, Staphylococcus aureus, Pseudomonas aeruginosa, methicillin-resistant Staphylococcus aureus and multidrug-resistant Pseudomonas aeruginosa was cultured in 3% (w/v) TSB liquid medium at 37° C. and 200 rpm for 4 hours, and then further cultured under the same conditions for 3 hours to a concentration of 5×10^9 CFU/ml. Strain solutions were prepared by diluting each of the further cultured strains with PBS solution to a final concentration of 1×10^5 CFU/μl.
Next, 100 μl of each strain solution was injected intravenously (IV) into the tail vein of each of 10-week-old male mice (C57BL/6). After one hour, KU-5878 was intravenously injected at a concentration of 10 mg/kg. As a control, PBS was intravenously injected at a concentration of 10 mg/kg, and as a positive control, LL-37, magainin 2, or daptomycin was intravenously injected at a concentration of 10 mg/kg.
40 minutes after the intravenous injection of each drug, about 1 cm from the tail end of each mouse was cut using surgical scissors, and 10 μl of the blood at the end of the cut was collected and diluted in PBS. The diluted blood sample was plated on a previously prepared TSB agar plate and incubated in an incubator at 37° C. for 18 hours, and the formed colonies were counted for comparison.

With KTMMQSGGTFGTFMAIGMGIR [KU-5878] as the sequence, how does the “hemolysis of red blood cells” value [1] read?
The value was “little hemolysis even at a high concentration”.

And the “MBC value (μg/ml), Multidrug-resistant K. pneumoniae” value [2]?
Its value is 100 µg/mL.

What about the “MBC value (μg/ml), Multidrug-resistant A. baumannii” value [3] of the same sequence?
The value was 110 µg/mL.

What about the “MBC value (μg/ml), Enterobacter aerogenes” value [4] of the same sequence?
The value was 90 µg/mL.

What about the “MBC value (μg/ml), Klebsiella pneumoniae” value [5] of the same sequence?
Its value is 100 µg/mL.

What about the “MBC value (μg/ml), Escherichia coli” value [6] of the same sequence?
The value was 85 µg/mL.

What about the “MBC value (μg/ml), Enterococcus faecium” value [7] of the same sequence?
The value was 85 µg/mL.

What about the “MBC value (μg/ml), Bacillus subtilis” value [8] of the same sequence?
The value was 90 µg/mL.

And the “MBC value (μg/ml), Enterococcus faecalis” value [9]?
Its value is 85 µg/mL.

What about the “MBC value (μg/ml) against methicillin-resistant Staphylococcus aureus” value ([10]; ATCC 33591, 4 h) of the same sequence?
The value was 100 µg/mL.

What about the MBC MRSA [10] of the same sequence?
Its MBC MRSA is 110 µg/mL.

What about the MBC MRSA ([10]; listed as 5878) of the same sequence?
Its MBC MRSA is 100 µg/mL.

What about the “survival of mice after injection” value ([11]; 12 days) of the same sequence?
Its value is “all survived”.

And the “effect on the weight of the mice” value ([11]; weights at 24-hour intervals for 12 days, FIG. 7)?
The value was “no effect on the weight of the mice”.

What about the “number of bacteria remaining in the blood vessels of the mice” value [12] of the same sequence?
The value was “most greatly decreased”.
